Here are results for 1 molecule from ChEMBL document CHEMBL3085632, “Subcellular localization of proflavine derivative and induction of oxidative stress--in vitro studies” (Bioorg Med Chem, 2013).

The term pIC50 denotes −log10 of the IC50, conventionally taken in molar units.

The test system of data set [1] is L1210. Briefly: Induction of apoptosis in mouse L1210 cells assessed as nucleosomal DNA fragmentation at 10 to 15 uM after 4 hrs by agarose gel electrophoresis. Type of data set: functional, cell-based.
Data set [2] concerns L1210. The data set can be described thus: Induction of apoptosis in mouse L1210 cells assessed as DNA ladder formation at 10 to 15 uM after 8 hrs by agarose gel electrophoresis. Type of data set: functional, cell-based.
Data set [3] has as its system L1210. Briefly: Cell cycle arrest in mouse L1210 cells assessed as accumulation at sub-G0 phase at 10 uM after 5 hrs by propidium iodide staining-based flow cytometric analysis relative to control. Type of data set: functional. Background: In flow cytometry, cells or beads pass a laser one at a time.
The test system of data set [4] is L1210. The data set can be described thus: Cell cycle arrest in mouse L1210 cells assessed as accumulation at S-phase at 10 uM after 5 hrs by propidium iodide staining-based flow cytometric analysis relative to control. It counts as functional.
Data set [5] relates to L1210. Briefly: Cytotoxicity against mouse L1210 cells assessed as cell viability at 50 uM after 24 hrs by MTT assay in presence of vitamin E. The note with it: L1210, 24 h, read-out: Activity. It counts as functional. A general note: Tetrazolium assays rely on reduction of a dye to a coloured formazan, in cell work by metabolically active cells.
For data set [6], the system named is L1210. The data set can be described thus: Cytotoxicity against mouse L1210 cells assessed as cell viability at 5 to 20 uM after 24 hrs by MTT assay in presence of vitamin E. Type of data set: functional, cell-based.
Data set [7] has as its system L1210. Briefly: Cytotoxicity against mouse L1210 cells assessed as intracellular ATP level at 5 to 10 uM after 6 hrs by luminometric assay in presence of vitamin E. It counts as functional, cell-based.
Data set [8] has as its system L1210. The data set can be described thus: Cytotoxicity against mouse L1210 cells assessed as decrease in intracellular ATP level at 10 uM after 6 hrs by luminometric assay. Type of data set: functional. On the set-up: scale not given: the % may be the effect or the level left.
The subject of data set [9] is L1210. Briefly: Induction of intracellular ROS production in mouse L1210 cells at 5 uM after 6 hrs by Dihydroethidium staining-based fluorescence assay in presence of vitamin E relative to control. Type of data set: functional, cell-based.
Data set [10] has as its system L1210. Briefly: Induction of intracellular ROS production in mouse L1210 cells at 5 uM after 6 hrs by Dihydroethidium staining-based fluorescence assay in absence of vitamin E relative to control. It counts as functional.
Data set [11] in a line: Drug uptake in mitochondria of mouse L1210 cells at 4 uM after 0.5 to 24 hrs by MitoRed staining-based flow cytometric analysis. It counts as ADME. The note with it: l1210, 4 µM.
Data set [12] can be described thus: Drug uptake in lysosomes of mouse L1210 cells at 4 uM after 30 mins by MDC staining-based flow cytometric analysis. It counts as ADME, cell-based, Lysosome. The note with it: l1210, 0.5 h.
Data set [13] in a line: Drug uptake in nucleus of mouse L1210 cells by Hoechst-33342 staining-based fluorescence microscopic analysis. Type of data set: ADME, cell-based.
A short description of data set [14]: Drug uptake in nucleus of mouse L1210 cells at 5 uM after 1 hr by propidium iodide staining-based confocal microscopic analysis. Type of data set: ADME, cell-based. The note with it: l1210, 1 h.
A short description of data set [15]: Selectivity ratio of IC50 for mouse NIH/3T3 cells to IC50 for mouse L1210 cells. It counts as ADME, cell-based. The conditions noted are these: NIH/3T3 cells versus L1210 cells, read-out: Ratio IC50.
Data set [16] can be described thus: Selectivity ratio of IC50 for mouse NIH/3T3 cells to IC50 for human HL60 cells. It counts as ADME, cell-based, HL-60. The note with it: NIH/3T3 cells versus HL60 cells, read-out: Ratio IC50.
For the next data set, the system named is NIH3T3. The data set can be described thus: Cytotoxicity against mouse NIH/3T3 cells assessed as cell viability after 72 hrs by MTT assay. The note with it: NIH3T3, 72 h. It counts as cell-based.

Structures are written as SMILES. pIC50: −log10 of the molar value. Calls of active or inactive are those of the source. The calls are words filed in the database; no cut-off is given here.

`CCCCCCN1C(=O)CN/C1=N\c1ccc2cc3ccc(/N=C4\NCC(=O)N4CCCCCC)cc3nc2c1.Cl`: the outcome with L1210 [1], in the data set with L1210 [7] and in the data set with L1210 [9] was inactive. The result with L1210 [2], with L1210 [4] and in the data set with L1210 [6] was Active. Moreover, the figures for the Activity in the data set with L1210 [3] and in the data set on L1210 [8] were 17.7% and 50%, respectively. The viability at 50 µM with L1210 [5] is 80%. Besides, in the data set with L1210 [10], the “fold change (FC)” value is on record as 4. Also, the Drug uptake result is reported as “Active” in [11], “Not Active” in data set [12], “Not Active” in data set [13] and “Not Active” in data set [14]. Besides, the selectivity ratio in [15] and in [16] was 4 in each case. Besides, the pIC50 in the data set on NIH3T3 is 4.73.
